Key:
[1] = target: Delta-type opioid receptor (Rattus norvegicus, UniProt P33533); assay: (§1) Binding Assay: Binding assay of opioid receptor.
Mu-type opioid receptor = Mu-type opioid receptor (Rattus norvegicus, UniProt P33535); assay: as §1
Chain of Mu-type opioid receptor (P33535 whole entry): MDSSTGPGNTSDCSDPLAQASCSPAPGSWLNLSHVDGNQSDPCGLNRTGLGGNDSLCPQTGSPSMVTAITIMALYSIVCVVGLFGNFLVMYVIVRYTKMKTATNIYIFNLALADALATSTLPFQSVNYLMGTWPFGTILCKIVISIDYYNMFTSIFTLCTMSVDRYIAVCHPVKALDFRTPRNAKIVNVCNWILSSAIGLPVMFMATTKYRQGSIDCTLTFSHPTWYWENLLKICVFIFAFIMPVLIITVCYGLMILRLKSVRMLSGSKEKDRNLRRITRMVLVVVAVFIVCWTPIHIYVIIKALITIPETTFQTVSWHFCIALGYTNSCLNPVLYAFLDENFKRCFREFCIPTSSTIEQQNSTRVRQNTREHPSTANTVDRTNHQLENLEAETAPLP

Chain of Delta-type opioid receptor (P33533 whole entry): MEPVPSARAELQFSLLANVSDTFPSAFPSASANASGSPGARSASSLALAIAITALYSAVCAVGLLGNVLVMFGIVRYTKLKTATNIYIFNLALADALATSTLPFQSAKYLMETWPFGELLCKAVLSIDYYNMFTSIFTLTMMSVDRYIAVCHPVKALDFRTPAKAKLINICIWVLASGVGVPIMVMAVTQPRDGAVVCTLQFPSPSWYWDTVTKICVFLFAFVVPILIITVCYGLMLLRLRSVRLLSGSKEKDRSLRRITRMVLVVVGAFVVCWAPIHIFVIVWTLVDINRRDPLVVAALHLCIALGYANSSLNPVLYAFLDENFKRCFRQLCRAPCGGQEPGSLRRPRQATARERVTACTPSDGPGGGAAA

COc1ccc(NC(=O)C2=C(O)[C@@H]3Oc4c(O)ccc5c4[C@@]34CCN(CC3CC3)[C@H](C5)[C@]4(O)C2)cn1 showed a Ki [1] of 27.6 nM and a Ki (Mu-type opioid receptor) of 2.29 nM.

CC(C)NC(=O)C1=C(NS(=O)(=O)c2ccc(Cl)cc2)[C@@H]2Oc3c(O)ccc4c3[C@@]23CCN(CC2CC2)[C@H](C4)[C@]3(O)C1 gave a Ki [1] of 0.56 nM and a Ki (Mu-type opioid receptor) of 11 nM.
